Measured values as given in ChEMBL document CHEMBL3616412, “Re-engineering nalidixic acid's chemical scaffold: A step towards the development of novel anti-tubercular and anti-bacterial leads for resistant pathogens” (2015).
≈ marks a conversion by molar mass, not a printed value.

How the values were obtained:
[1] = system: Mycobacterium tuberculosis; assay: Antitubercular activity against Mycobacterium tuberculosis H37Rv ATCC 27294 after 5 days by micro alamar blue assay; format: functional
[2] = system: Proteus vulgaris; assay: Antibacterial activity against Proteus vulgaris at 10 ug/disk after 24 hrs by agar plate disk diffusion method; format: functional; conditions: read-out: DIZ
[3] = system: Salmonella typhi; assay: Antibacterial activity against Salmonella typhi after 24 hrs by agar dilution method; format: functional, Salmonella enterica subsp. enterica serovar Typhi; conditions: Salmonella enterica
[4] = system: Salmonella paratyphi; assay: Antibacterial activity against Salmonella paratyphi after 5 days by microdilution method; format: functional, Salmonella enterica subsp. enterica serovar Paratyphi A; conditions: Salmonella enterica, 120 h
[5] = system: Escherichia coli; assay: Antibacterial activity against Escherichia coli at 10 ug/disk after 24 hrs by agar plate disk diffusion method; format: functional; conditions: read-out: DIZ
[6] = system: Salmonella typhi; assay: Antibacterial activity against Salmonella typhi after 5 days by microdilution method; format: functional, Salmonella enterica subsp. enterica serovar Typhi; conditions: Salmonella enterica, 120 h
[7] = system: Pseudomonas aeruginosa; assay: Antibacterial activity against Pseudomonas aeruginosa at 10 ug/disk after 24 hrs by agar plate disk diffusion method; format: functional; conditions: read-out: DIZ
[8] = system: Salmonella paratyphi; assay: Antibacterial activity against Salmonella paratyphi at 10 ug/disk after 24 hrs by agar plate disk diffusion method; format: functional, Salmonella enterica subsp. enterica serovar Paratyphi A; conditions: Salmonella enterica, read-out: DIZ
[9] = system: Salmonella paratyphi; assay: Antibacterial activity against Salmonella paratyphi after 24 hrs by agar dilution method; format: functional, Salmonella enterica subsp. enterica serovar Paratyphi A; conditions: Salmonella enterica
[10] = system: Proteus vulgaris; assay: Antibacterial activity against Proteus vulgaris after 24 hrs by agar dilution method; format: functional
[11] = system: Staphylococcus aureus; assay: Antibacterial activity against Staphylococcus aureus at 10 ug/disk after 24 hrs by agar plate disk diffusion method; format: functional; conditions: read-out: DIZ
[12] = system: Salmonella typhi; assay: Antibacterial activity against Salmonella typhi at 10 ug/disk after 24 hrs by agar plate disk diffusion method; format: functional, Salmonella enterica subsp. enterica serovar Typhi; conditions: Salmonella enterica, read-out: DIZ
[13] = system: Proteus vulgaris; assay: Antibacterial activity against Proteus vulgaris after 5 days by microdilution method; format: functional; conditions: 120 h
[14] = system: Escherichia coli; assay: Antibacterial activity against Escherichia coli after 5 days by microdilution method; format: functional; conditions: 120 h
[15] = system: Staphylococcus aureus; assay: Antibacterial activity against Staphylococcus aureus after 24 hrs by agar dilution method; format: functional
[16] = system: Pseudomonas aeruginosa; assay: Antibacterial activity against Pseudomonas aeruginosa after 5 days by microdilution method; format: functional; conditions: 120 h
[17] = system: Pseudomonas aeruginosa; assay: Antibacterial activity against Pseudomonas aeruginosa after 24 hrs by agar dilution method; format: functional
[18] = system: Staphylococcus aureus; assay: Antibacterial activity against Staphylococcus aureus after 5 days by microdilution method; format: functional; conditions: 120 h
[19] = system: Escherichia coli; assay: Antibacterial activity against Escherichia coli after 24 hrs by agar dilution method; format: functional

Row | SMILES | inhibition (INH) [1] | zone of inhibition at 10 µg/disc [2] | MIC [3] | MIC [4] | zone of inhibition at 10 µg/disc [5] | MIC [6] | zone of inhibition at 10 µg/disc [7] | zone of inhibition at 10 µg/disc [8] | MIC [9] | MIC [10] | zone of inhibition at 10 µg/disc [11] | zone of inhibition at 10 µg/disc [12] | MIC [13] | MIC [14] | MIC [15] | MIC [16] | MIC [17] | MIC [18] | MIC [19]
1 | CCOC(=O)c1cn(CC)c2nc(C)ccc2c1=O | 78% | 23 mm | 1 µg/mL (≈ 3.84 µM) | 1 µg/mL (≈ 3.84 µM) | 22 mm | 1 µg/mL (≈ 3.84 µM) | 17 mm | 19 mm | 1 µg/mL (≈ 3.84 µM) | 0.5 µg/mL (≈ 1.92 µM) | 24 mm | 21 mm | 0.5 µg/mL (≈ 1.92 µM) | 0.5 µg/mL (≈ 1.92 µM) | 0.25 µg/mL (≈ 0.96 µM) | 2 µg/mL (≈ 7.68 µM) | 2 µg/mL (≈ 7.68 µM) | 0.25 µg/mL (≈ 0.96 µM) | 0.5 µg/mL (≈ 1.92 µM)
2 | CCn1cc(C(=O)NNC(N)=S)c(=O)c2ccc(C)nc21 | 84% | 30 mm | 0.5 µg/mL (≈ 1.64 µM) | 0.5 µg/mL (≈ 1.64 µM) | 29 mm | 0.5 µg/mL (≈ 1.64 µM) | 26 mm | 23 mm | 0.5 µg/mL (≈ 1.64 µM) | 0.12 µg/mL (≈ 0.393 µM) | 28 mm | 23 mm | 0.12 µg/mL (≈ 0.393 µM) | 0.12 µg/mL (≈ 0.393 µM) | 0.12 µg/mL (≈ 0.393 µM) | 0.25 µg/mL (≈ 0.819 µM) | 0.25 µg/mL (≈ 0.819 µM) | 0.12 µg/mL (≈ 0.393 µM) | 0.12 µg/mL (≈ 0.393 µM)
3 | CCn1cc(C(=O)NN)c(=O)c2ccc(C)nc21 | 80% | 34 mm | 0.5 µg/mL (≈ 2.03 µM) | 0.5 µg/mL (≈ 2.03 µM) | 39 mm | 0.5 µg/mL (≈ 2.03 µM) | 39 mm | 20 mm | 0.5 µg/mL (≈ 2.03 µM) | 0.06 µg/mL (≈ 0.244 µM) | 28 mm | 28 mm | 0.06 µg/mL (≈ 0.244 µM) | 0.06 µg/mL (≈ 0.244 µM) | 0.12 µg/mL (≈ 0.487 µM) | 0.25 µg/mL (≈ 1.02 µM) | 0.25 µg/mL (≈ 1.02 µM) | 0.12 µg/mL (≈ 0.487 µM) | 0.06 µg/mL (≈ 0.244 µM)
4 | CCn1cc(C(=O)NNC(=S)/N=c2\[nH]c3ccccc3[nH]c2=O)c(=O)c2ccc(C)nc21 | 93% | 18 mm | 2 µg/mL (≈ 4.45 µM) | 2 µg/mL (≈ 4.45 µM) | 19 mm | 2 µg/mL (≈ 4.45 µM) | 19 mm | 18 mm | 2 µg/mL (≈ 4.45 µM) | 2 µg/mL (≈ 4.45 µM) | 20 mm | 22 mm | 2 µg/mL (≈ 4.45 µM) | 2 µg/mL (≈ 4.45 µM) | 1 µg/mL (≈ 2.22 µM) | > 4 µg/mL | > 4 µg/mL | 1 µg/mL (≈ 2.22 µM) | 2 µg/mL (≈ 4.45 µM)
5 | CCn1cc(C(=O)N/N=c2\[nH]c3ccccc3[nH]c2=O)c(=O)c2ccc(C)nc21 | 91% | 20 mm | > 4 µg/mL | > 4 µg/mL | 22 mm | > 4 µg/mL | 17 mm | 15 mm | > 4 µg/mL | 2 µg/mL (≈ 5.12 µM) | 21 mm | 14 mm | 2 µg/mL (≈ 5.12 µM) | 2 µg/mL (≈ 5.12 µM) | 1 µg/mL (≈ 2.56 µM) | > 4 µg/mL | > 4 µg/mL | 1 µg/mL (≈ 2.56 µM) | 2 µg/mL (≈ 5.12 µM)
6 | CCn1cc(-c2n[nH]c(=S)n2-c2nc3ccccc3[nH]c2=O)c(=O)c2ccc(C)nc21 | 77% | 30 mm | 1 µg/mL (≈ 2.32 µM) | 1 µg/mL (≈ 2.32 µM) | 28 mm | 1 µg/mL (≈ 2.32 µM) | 29 mm | 23 mm | 1 µg/mL (≈ 2.32 µM) | 0.5 µg/mL (≈ 1.16 µM) | 30 mm | 22 mm | 0.5 µg/mL (≈ 1.16 µM) | 0.06 µg/mL (≈ 0.139 µM) | 0.06 µg/mL (≈ 0.139 µM) | 1 µg/mL (≈ 2.32 µM) | 1 µg/mL (≈ 2.32 µM) | 0.06 µg/mL (≈ 0.139 µM) | 0.06 µg/mL (≈ 0.139 µM)
7 | CCn1cc(-c2nn(-c3nc4ccccc4[nH]c3=O)c(=S)o2)c(=O)c2ccc(C)nc21 | 75% | 26 mm | 1 µg/mL (≈ 2.31 µM) | 1 µg/mL (≈ 2.31 µM) | 25 mm | 1 µg/mL (≈ 2.31 µM) | 23 mm | 22 mm | 1 µg/mL (≈ 2.31 µM) | 1 µg/mL (≈ 2.31 µM) | 32 mm | 23 mm | 1 µg/mL (≈ 2.31 µM) | 0.5 µg/mL (≈ 1.16 µM) | 0.06 µg/mL (≈ 0.139 µM) | 1 µg/mL (≈ 2.31 µM) | 1 µg/mL (≈ 2.31 µM) | 0.06 µg/mL (≈ 0.139 µM) | 0.5 µg/mL (≈ 1.16 µM)
8 | CC1(C)S[C@@H]2[C@H](NC(=O)[C@H](N)c3ccc(O)cc3)C(=O)N2[C@H]1C(=O)O [AMOXICILLIN] | – | 24 mm | 0.5 µg/mL (≈ 1.37 µM) | 2 µg/mL (≈ 5.47 µM) | 25 mm | 0.5 µg/mL (≈ 1.37 µM) | 21 mm | 22 mm | 2 µg/mL (≈ 5.47 µM) | 1 µg/mL (≈ 2.74 µM) | 32 mm | 21 mm | 1 µg/mL (≈ 2.74 µM) | 0.25 µg/mL (≈ 0.684 µM) | 0.5 µg/mL (≈ 1.37 µM) | 2 µg/mL (≈ 5.47 µM) | 2 µg/mL (≈ 5.47 µM) | 0.5 µg/mL (≈ 1.37 µM) | 0.25 µg/mL (≈ 0.684 µM)
9 | O=C(O)c1cn(C2CC2)c2cc(N3CCNCC3)c(F)cc2c1=O [CIPROFLOXACIN] | – | 33 mm | 0.12 µg/mL (≈ 0.362 µM) | 0.25 µg/mL (≈ 0.754 µM) | 28 mm | 0.12 µg/mL (≈ 0.362 µM) | 23 mm | 25 mm | 0.25 µg/mL (≈ 0.754 µM) | 0.25 µg/mL (≈ 0.754 µM) | 30 mm | 26 mm | 0.25 µg/mL (≈ 0.754 µM) | – | 0.12 µg/mL (≈ 0.362 µM) | – | – | 0.12 µg/mL (≈ 0.362 µM) | –
10 | NNC(=O)c1ccncc1 [ISONIAZID] | 100% | – | – | – | – | – | – | – | – | – | – | – | – | – | – | – | – | – | –
11 | CCn1cc(C(=O)O)c(=O)c2ccc(C)nc21 [NALIDIXIC ACID] | 63% | 25 mm | 1 µg/mL (≈ 4.31 µM) | 1 µg/mL (≈ 4.31 µM) | 26 mm | 1 µg/mL (≈ 4.31 µM) | 22 mm | 24 mm | 1 µg/mL (≈ 4.31 µM) | 0.25 µg/mL (≈ 1.08 µM) | 27 mm | 25 mm | 0.25 µg/mL (≈ 1.08 µM) | 0.25 µg/mL (≈ 1.08 µM) | 0.12 µg/mL (≈ 0.517 µM) | 1 µg/mL (≈ 4.31 µM) | 1 µg/mL (≈ 4.31 µM) | 0.12 µg/mL (≈ 0.517 µM) | 0.25 µg/mL (≈ 1.08 µM)
12 | CO[C@H]1/C=C/O[C@@]2(C)Oc3c(C)c(O)c4c(O)c(c(/C=N/N5CCN(C)CC5)c(O)c4c3C2=O)NC(=O)/C(C)=C\C=C\[C@H](C)[C@H](O)[C@@H](C)[C@@H](O)[C@@H](C)[C@H](OC(C)=O)[C@@H]1C [RIFAMPIN] | 98% | – | – | – | – | – | – | – | – | – | – | – | – | – | – | – | – | – | –
